Settings: rat
Method: Seven budesonide formulations were assessed for the ability to cross the lung by perfusion on an isolated lung perfusion system. LC-MS/MS was utilized to measure budesonide concentration in perfusate samples collected for up to approximately 123 minutes after intratracheal (IT) administration of the representative formulations to male Sprague-Dawley rats. The mass of budesonide remaining in the lung was also measured at the terminus of the procedure.
After release from quarantine, the study animals were euthanized with an IP injection of a barbiturate (minimum 150 mg/kg pentobarbital). The trachea, pulmonary artery and left ventricle were cannulated and the heart/lung bloc was removed from the thoracic cavity. The heart/lung bloc was placed in an artificial thoracic cavity (Hugo Sachs Electronik-Harvard). The budesonide suspension test formulations were administered by intratracheal installation at a volume of 40-100 μL. Following test formulation delivery, fractionated single pass perfusate samples were collected over a 2 hour period. The concentration of budesonide in the perfusate and lung tissue was determined by Liquid Chromatography-Mass Spectrometry (LC-MS/MS).
The test formulations contained in single unit dose vials (1.5 ml or 2 ml) were inverted several times before being transferred to a secondary container. Bulk formulations were diluted in saline and were gently swirled, and then aliquots of 40-100 μl were drawn up in a syringe and installed IT into the isolated perfused lung model directly through a cannula placed at the top of the trachea.
The Study animals were euthanized with an overdose of pentobarbital. During necropsy, the trachea and lungs were excised from the rat and placed on the IPL system cannula. The lungs were ventilated with room air at a rate of 60 breaths per minute by negative pressure ventilation. Chamber pressures were adjusted to reach target goals of a tidal volume of 2.5 ml and a peak expiratory flow of 12 ml/sec.
Single pass perfusate samples were collected over a 60-120 minute period. Perfusate samples were fractionated into 17 samples collected at approximately (min): 0.67; 1.3; 2.7; 4; 6; 8; 10; 12.5; 15; 22; 29; 36; 43; 63; 83; 103; and 123.
Perfusate and lung tissue samples were stored at −80° C. prior to subsequent analysis by LC-MS/MS. During operation of the isolated perfused lung (IPL) system pressure and flow recordings were collected using EMKA (version 2.5) software. […] Data was reduced to 5 minute data points for the purposes of statistical comparisons. Mean and standard error were performed on the perfusate and lung tissue concentrations using Microsoft Excel software. Pharmacokinetic properties were evaluated by WinNonlin software (Version 5.0.1, Pharsight Corporation, Sunnyvale, Calif. 94086).

Row | Molecule | Cmax [ng/mL] | Tmax [min]
1 | budesonide [Group-1, reference compound] | 104.5 | 1.3
2 | budesonide [Group-2, reference compound] |  | 1.3
3 | budesonide [Group-3, reference compound] |  | 1.3
4 | budesonide [Group-4] | 146.4 | 
5 | budesonide [Group-5, reference compound] |  | 1.3

Settings: in water at 20° C.; cited from earlier work

Row | Molecule | water solubility
6 | ClCCl [dichloromethane] | 13 grams/liter
7 | CCOCC [diethyl ether] | 69 grams/liter
8 | CCOC(C)=O [ethyl acetate] | 83 grams/liter
9 | CC(=O)OC(C)C [isopropyl acetate] | 43 grams/liter
10 | CC(=O)CC(C)C [methyl isobutyl ketone] | 19 grams/liter.
